The text below walks through data of patent US11634701B2, “Metabolic pathways with increased carbon yield” (TOTAL RAFFINAGE CHIMIE, priority 2018, dated 2023).

Like-named read-outs stand apart in the source and are kept apart here.

Assay [1] has as its system C. acetobutylicum Tal (transaldolase). The settings on record: measured experimentally or estimated from literature, cited from earlier work.
The test system of assay [2] is C. acetobutylicum Tkt′ (transketolase, second reaction). Conditions: measured experimentally or estimated from literature, cited from earlier work.
Assay [3] relates to C. acetobutylicum Rpi (ribose-5-phosphate isomerase). The settings on record: measured experimentally or estimated from literature, cited from earlier work.
Assay [4] has as its system C. acetobutylicum Tkt (transketolase). Conditions: measured experimentally or estimated from literature, cited from earlier work.
Assay [5] has as its system C. acetobutylicum Rpe (ribulose-3-phosphate epimerase). The settings on record: measured experimentally or estimated from literature, cited from earlier work.
Assay [6] deals with C. acetobutylicum Tpi (triose phosphate isomerase). Conditions: measured experimentally or estimated from literature, cited from earlier work.
Assay [7] concerns the target C. acetobutylicum Fba (fructose-1,6-bisphosphate aldolase). The settings on record: measured experimentally or estimated from literature, cited from earlier work.
Assay [8] concerns C. acetobutylicum Fba (fructose-1,6-bisphosphate aldolase). The experiment in a line: Kinetic parameters of C. acetobutylicum NOG enzymes (Fba). Type of assay: biochemical. The settings on record: measured experimentally or estimated from literature; read-out: Kms. The method, then: (§1) The kinetic parameters of C. acetobutylicum enzymes involved in the NOG pathway were measured experimentally or estimated from literature (Table 1) and compiled in a COPASI toolbox for kinetic simulations.

For assay [9], the system named is C. acetobutylicum Fbp (fructose-1,6-biphosphatase). The experiment in a line: Kinetic parameters of C. acetobutylicum NOG enzymes (Fbp). Type of assay: biochemical. Conditions: measured experimentally or estimated from literature. The method, then:
as §1

The target in assay [10] is T1, C. acetobutylicum Xpk (xylulose-5-phosphate phosphoketolase) (Clostridium acetobutylicum, UniProt Q97JE3).
T1 sequence (Q97JE3 1-796): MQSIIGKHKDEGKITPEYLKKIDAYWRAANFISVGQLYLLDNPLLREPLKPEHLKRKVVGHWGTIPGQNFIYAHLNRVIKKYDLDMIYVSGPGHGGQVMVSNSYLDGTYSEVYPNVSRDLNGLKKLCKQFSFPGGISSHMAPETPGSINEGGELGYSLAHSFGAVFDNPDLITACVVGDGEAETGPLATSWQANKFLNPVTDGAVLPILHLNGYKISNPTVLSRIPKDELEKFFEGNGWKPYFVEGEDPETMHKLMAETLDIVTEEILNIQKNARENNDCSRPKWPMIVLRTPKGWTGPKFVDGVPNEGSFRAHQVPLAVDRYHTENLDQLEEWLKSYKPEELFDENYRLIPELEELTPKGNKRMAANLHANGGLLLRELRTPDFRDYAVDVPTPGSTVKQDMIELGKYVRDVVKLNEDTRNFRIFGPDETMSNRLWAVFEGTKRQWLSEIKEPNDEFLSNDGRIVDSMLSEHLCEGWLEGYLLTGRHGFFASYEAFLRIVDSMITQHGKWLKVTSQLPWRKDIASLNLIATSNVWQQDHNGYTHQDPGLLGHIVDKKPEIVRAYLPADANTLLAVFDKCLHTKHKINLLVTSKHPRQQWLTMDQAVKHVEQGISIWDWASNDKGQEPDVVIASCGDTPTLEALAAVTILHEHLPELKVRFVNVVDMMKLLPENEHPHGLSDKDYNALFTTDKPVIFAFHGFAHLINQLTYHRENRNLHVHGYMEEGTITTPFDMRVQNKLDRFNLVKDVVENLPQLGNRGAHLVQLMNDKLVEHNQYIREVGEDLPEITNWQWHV
The assay can be described thus: Kinetic parameters of C. acetobutylicum NOG enzymes (Xpk). It counts as biochemical. The settings on record: measured experimentally or estimated from literature. Here is the method:
as §1

For the molecule `O=C[C@H](O)[C@H](O)COP(=O)(O)O` [erythrose-4-phosphate], the Km in assay [1] (read-out: Kmq) was 362 µM; in assay [2] (read-out: Kma), 946 µM.

Turning to `O=P(O)(O)OC[C@H]1OC(O)[C@H](O)[C@@H]1O` (stereo partly shown) [ribose-5-phosphate], the Km was 5700 µM in [3] (read-out: Kmp) and 235 µM in [4] (read-out: Kmb).

`O=C(CO)[C@H](O)[C@H](O)COP(=O)(O)O` [ribulose-5-phosphate]: the values for the Km in assay [5] (read-out: Kms) and in assay [3] (read-out: Kms) were 5970 µM and 2470 µM, respectively.

As for `O=C(CO)[C@@H](O)[C@H](O)[C@H](O)[C@H](O)COP(=O)(O)O` [sedoheptulose-7-phosphate], the Km in assay [1] (read-out: Kmb) was 786 µM; in [4] (read-out: Kmq), 150 µM.

In the case of `O=C[C@H](O)COP(=O)(O)O` [glyceraldehyde-3-phosphate], the Km in assay [6] (read-out: Kmp) is 5250 µM; in assay [1] (read-out: Kma), 272 µM; in assay [2] (read-out: Kmq) it was 100 µM; in [7] (read-out: Kmq) it was 2400 µM. In addition, the Ki in assay [7] (read-out: Kip) was 10 mM.

`O=P(O)(O)OC[C@H]1OC(O)(CO)[C@@H](O)[C@@H]1O` (stereo partly shown) [fructose-6-phosphate]: the Km in assay [1] (read-out: Kmp) is 1440 µM; in assay [2] (read-out: Kmp), 1100 µM.

Turning to `O=P(O)(O)OC[C@H]1OC(O)(COP(=O)(O)O)[C@@H](O)[C@@H]1O` (stereo partly shown) [fructose-1,6-bisphosphate], the Km in assay [8] is 1140 µM; in [9], 63 µM.

Turning to `O=C(CO)COP(=O)(O)O` [dihydroxyacetone phosphate], the Km in assay [6] (read-out: Kms) was 6450 µM; in assay [7] (read-out: Kmp), 2000 µM.

Turning to `O=C(CO)[C@@H](O)[C@H](O)COP(=O)(O)O` [xylulose-5-phosphate], the results for the Km in assay [10], in assay [5] (read-out: Kmp) and in [2] (read-out: Kmb) were 6400 µM, 7700 µM and 670 µM, respectively.
